Legend:
[1] = tested on: Dx/PAS cells; assay: MTT assay, DxP subclone; assay type: cell-based, human
Procedure: (§1) Growth Inhibition Assay. Approximately 8000 cells per well were seeded in 96 well plates and incubated with or without drugs for 72 hr at 37° C. in an atmosphere of 5% CO2. Growth inhibition was evaluated by the MTT colorimetric assay in triplicate or quadruplicate as previously described. The absorbance was measured with a ThermoMax microplate reader (Molecular Devices, Menlo Park, Calif.). The IC50 (drug concentration resulting in 50% inhibition of MTT dye formation, compared to controls) was determined directly from semi-logarithmic dose-response curves. The doubling times of MES-SA, D×5, and D×P were determined as previously described.
(§2) Reversal of MDR by Modulators. […] The modulation ratio was obtained by comparing IC50 s in the presence and absence of modulators.
(§3) Clonal Analysis of D×P cells. Subcloning of cells was performed by limiting dilution. Both resistant and revertant clones were analyzed for the MDR phenotype, drug accumulation, and rt-PCR or heteroduplex as described above.

[2] = tested on: Dx/PCS cells; assay: MTT assay, DxP subclone; assay type: cell-based, human
Procedure: as §1, §2, §3

[3] = tested on: Dx/PDS cells; assay: MTT assay, DxP subclone; assay type: cell-based, human
Procedure: as §1, §2, §3

[4] = tested on: Dx/PES cells; assay: MTT assay, DxP subclone; assay type: cell-based, human
Procedure: as §1, §2, §3

[5] = tested on: Dx/PIS cells; assay: MTT assay, DxP subclone; assay type: cell-based, human
Procedure: as §1, §2, §3

[6] = tested on: Dx/PGS cells; assay: MTT assay, DxP subclone; assay type: cell-based, human
Procedure: as §1, §2, §3

[7] = tested on: Dx/PMS cells; assay: MTT assay, DxP subclone; assay type: cell-based, human
Procedure: as §1, §2, §3

[8] = tested on: Dx/PJS cells; assay: MTT assay, DxP subclone; assay type: cell-based, human
Procedure: as §1, §2, §3

[9] = tested on: Dx/PBS cells; assay: MTT assay, DxP subclone; assay type: cell-based, human
Procedure: as §1, §2, §3

[10] = tested on: Dx/PFS cells; assay: MTT assay, DxP subclone; assay type: cell-based, human
Procedure: as §1, §2, §3

[11] = tested on: Dx/PHS cells; assay: MTT assay, DxP subclone; assay type: cell-based, human
Procedure: as §1, §2, §3

[12] = tested on: MES-SA/DxP5002 (DxP) cells; assay: Growth inhibition (MTT) assay, with or without MDR modulators
Procedure: Cells and Tissue Culture. […] Monolayer cultures of MES-SA cells and its variants were grown in McCoy's medium (Irvine Scientific, Santa Ana, Calif.) supplemented with 10% newborn calf serum (Gibco, Grand Island, N.Y.), 2 mM L-glutamine, and antibiotics(100 U/ml penicillin, 100 μg/ml streptomycin).
Growth Inhibition Assay. Approximately 8000 cells per well were seeded in 96 well plates and incubated with or without drugs for 72 hr at 37° C. in an atmosphere of 5% CO2. Growth inhibition was evaluated by the MTT colorimetric assay in triplicate or quadruplicate as previously described. The absorbance was measured with a ThermoMax microplate reader (Molecular Devices, Menlo Park, Calif.). […] The doubling times of MES-SA, D×5, and D×P were determined as previously described.
as §2

[13] = tested on: MES-SA cells; assay: as above; assay type: cell-based, human; conditions: MES-SA cells
Procedure: (§4) Cells and Tissue Culture. Details of the development and characterization of the human cell line MES-SA and its MDR variant MES-SA/Dx5 (D×5), which were derived from sarcoma elements of a uterine mixed Mullerian tumor, are described in Harker and Sikic (1985) Cancer Research 45:3810-3815. MES-SA/DxP5002 (DxP) cells were derived from Dx5.05 cells (D×5 cells selected and maintained at a DOX concentration of 0.5 μM) by step-wise selection in the presence of increasing DOX concentrations (from 40 nM up to 0.5 μM) and a constant PSC 833 concentration at 2 μM over a one-year period. Monolayer cultures of MES-SA cells and its variants were grown in McCoy's medium (Irvine Scientific, Santa Ana, Calif.) supplemented with 10% newborn calf serum (Gibco, Grand Island, N.Y.), 2 mM L-glutamine, and antibiotics(100 U/ml penicillin, 100 μg/ml streptomycin).
as §1, §2

[14] = tested on: MES-SA/Dx5 (Dx5) cells; assay: as above; assay type: cell-based, human
Procedure: as §4, §1, §2

SMILES: COc1cccc2c1C(=O)c1c(O)c3c(c(O)c1C2=O)C[C@@](O)(C(=O)CO)C[C@@H]3O[C@H]1C[C@H](N)[C@H](O)[C@H](C)O1 [Doxorubicin]
- fold resistance relative to MES-SA ([1]; + PSC): 51 fold
- fold resistance relative to MES-SA ([1]; no modulator): 163 fold
- fold resistance relative to MES-SA ([2]; + PSC): 23 fold
- fold resistance relative to MES-SA ([2]; no modulator): 50 fold
- fold resistance relative to MES-SA ([3]; + PSC): 100 fold
- fold resistance relative to MES-SA ([3]; no modulator): 150 fold
- fold resistance relative to MES-SA ([4]; + PSC): 100 fold
- fold resistance relative to MES-SA ([4]; no modulator): 96 fold
- fold resistance relative to MES-SA ([5]; + PSC): 3 fold
- fold resistance relative to MES-SA ([5]; no modulator): 13 fold
- fold resistance relative to MES-SA ([6]; + PSC): 7 fold
- fold resistance relative to MES-SA ([6]; no modulator): 7 fold
- fold resistance relative to MES-SA ([7]; + PSC): 50 fold
- fold resistance relative to MES-SA ([7]; no modulator): 100 fold
- fold resistance relative to MES-SA ([8]; + PSC): 75 fold
- fold resistance relative to MES-SA ([8]; no modulator): 175 fold
- fold resistance relative to MES-SA ([9]; + PSC): 13 fold
- fold resistance relative to MES-SA ([9]; no modulator): 67 fold
- fold resistance relative to MES-SA ([10]; + PSC): 75 fold
- fold resistance relative to MES-SA ([10]; no modulator): 150 fold
- fold resistance relative to MES-SA ([11]; + PSC): 37 fold
- fold resistance relative to MES-SA ([11]; no modulator): 83 fold
- Level of resistance of DxP cells to the cytotoxin compared with parental Dx5 (in words) ([12]; DxP cells): similar
- Fold resistance ([12]; DxP cells, +2 μM PSC 833): 53 fold
- Fold resistance ([12]; DxP cells, +3 μM cyclosporin A): 30 fold
- Fold resistance ([12]; DxP cells, +6 μM Verapamil): 18 fold
- Fold resistance ([12]; DxP cells, no modulator, relative to MES-SA): 77 fold
- Dx5/DxP, fold of resistance difference in DxP cells compared with parental Dx5 cells ([12]; DxP vs Dx5): 1 fold
- IC50 ([13]; Homo sapiens, 72 hr MTT, read-out: IC50 of drug-sensitive MES-SA cells (values in parenthesis)): 40 nM
- Fold resistance ([13]; +2 μM PSC 833): 1 fold
- Fold resistance ([13]; +3 μM cyclosporin A): 0.5 fold
- Fold resistance ([13]; +6 μM Verapamil): 0.5 fold
- Fold resistance ([13]; no modulator, 72 hr MTT): 1 fold
- Fold resistance ([14]; +2 μM PSC 833): 1 fold
- Fold resistance ([14]; +3 μM cyclosporin A): 2 fold
- Fold resistance ([14]; +6 μM Verapamil): 4 fold
- Fold resistance ([14]; no modulator, relative to MES-SA): 80 fold

— patent US5830697A, “P-glycoprotein mutant resistant to cyclosporin modulation” (The Board of Trustees of the Leland Stanford Junior …, priority 1997, dated 1998)
